Calls of active or inactive are those of the source.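 The calls were made as follows: active = tumour findings in long-term animal cancer tests in more than one sex, species or organ; inactive = no tumour finding and more than one negative test.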
assay: DSSTox (CPDBAS) Carcinogenic Potency Database Summary MultiCellCall Results; settings: animal carcinogenicity bioassays, multi-cell call summary
Summary of the method: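 Summary call drawn from chronic long-term cancer bioassays in rats, mice, hamsters, dogs and nonhuman primates, using the most positive result per sex-species. Score: multispecies=50, multisex=30, multisite=20, summed for combinations.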

Structure (SMILES) | outcome
ClC(Cl)(Cl)Cl | active; multisite active; multisex active; multispecies active
NN | active; multisite active; multisex active; multispecies active
Cn1cc[nH]c1=S | active; multisex active
Cc1cc(C(C)(C)C)c(O)c(C(C)(C)C)c1 | active; multisite active
Brc1cc(Br)c(-c2cc(Br)c(Br)cc2Br)cc1Br | active; multisex active; multispecies active
CCCCCCCC/C=C\CCCCCCCC(=O)O | inactive; multisex inactive
O=C1C(Cl)=C(Cl)C(=O)c2ccccc21 | inactive; multisex inactive
O=C(O)CCC(=O)O | inactive; multisex inactive
CN(C)C(=S)S | inactive; multisex inactive
ClC(Cl)C(Cl)(Cl)Cl | active; multisex active
Nc1ccc([N+](=O)[O-])cc1 | inactive; multisex inactive; multispecies inactive
O=C(Oc1ccccc1)Oc1ccccc1 | inactive; multisex inactive
[O]=[Mo](=[O])=[O] | active; multisex active
CC1=C(C(=O)OC(C)C)C(c2cccc([N+](=O)[O-])c2)C(C(=O)OC2CN(C(c3ccccc3)c3ccccc3)C2)=C(N)N1 (configuration not stated) | inactive; multisex inactive; multispecies inactive
O=C(O)CC[N+](=O)[O-] | inactive; multisex inactive; multispecies inactive
Cn1c(N)nc2ncc(-c3ccccc3)cc21 | active; multisite active; multisex active; multispecies active
CCCCCCCCCCCCCCCC(=O)OC/C=C(C)/C=C/C=C(C)/C=C/C1=C(C)CCCC1(C)C | inactive; multispecies inactive
NC(N)=O | inactive; multisex inactive; multispecies inactive
C=CCN(CC(O)CO)N=O (configuration not stated) | active; multisite active
Cc1ccccc1[N+](=O)[O-] | active; multisite active; multisex active; multispecies active
CC(CN1CC(=O)NC(=O)C1)N1CC(=O)NC(=O)C1 (configuration not stated) | active; multisite active; multispecies active
O=C(O)c1cccnc1 | inactive; multisex inactive
Nc1nnc(-c2ccc([N+](=O)[O-])o2)o1 | active; multisite active
Nc1nc(-c2ccc([N+](=O)[O-])o2)cs1 | active; multisite active; multispecies active
CN1[C@@H]2CC[C@H]1CC(OC(=O)C(CO)c1ccccc1)C2 (some centres not stated) | inactive; multisex inactive
IC(I)I | inactive; multisex inactive; multispecies inactive

Structure (SMILES) | outcome
COc1ccc([N+](=O)[O-])cc1N=Nc1c(O)c(C(=O)Nc2cccc([N+](=O)[O-])c2)cc2ccccc12 | inactive; multisex inactive; multispecies inactive
CCCCCCCCCCCCN(C)N=O | active; multisite active; multisex active
C=CCN(CC(C)O)N=O (configuration not stated) | active; multisite active
c1ccc2sc(SN3CCOCC3)nc2c1 | inactive; multisex inactive
CC(C)C(C(=O)OC(C#N)c1cccc(Oc2ccccc2)c1)c1ccc(Cl)cc1 (configuration not stated) | inactive; multisex inactive; multispecies inactive
O=NN1CCCC1c1ccc[n+]([O-])c1 (configuration not stated) | active; multisite active; multisex active
C[C@]12CC[C@H]3C(=CCc4cc(OS(=O)(=O)O)ccc43)[C@@H]1CCC2=O | inactive; multisex inactive
CCCCCNN | active; multisite active
N#CS | inactive; multisex inactive
C[C@]12CC[C@H](OS(=O)(=O)O)CC1=CC[C@@H]1[C@@H]2CC[C@]2(C)C(=O)CC[C@@H]12 | inactive; multisex inactive
O=C(C1CCCCC1)N1CC(=O)N2CCc3ccccc3C2C1 (configuration not stated) | inactive; multisex inactive; multispecies inactive
Nc1ccc(Cl)cc1N | active; multisite active; multisex active; multispecies active
FC(F)=C(F)F | active; multisite active; multisex active; multispecies active
N[C@@H](CCC(=O)O)C(=O)O | inactive; multisex inactive; multispecies inactive
Nc1ccc(N=Nc2ccccc2)c(N)n1 | active; multisite active; multisex active; multispecies active
C=C(C)C(=O)Nc1ccc(Cl)c(Cl)c1 | inactive; multisex inactive
O=C1OC(=O)c2ccccc21 | inactive; multisex inactive; multispecies inactive
S=[Se] | active; multisite active; multisex active; multispecies active
C=CCN(N=O)C(N)=O | active; multisite active; multisex active
Cc1cc(=O)n(-c2ccccc2)n1C | active; multisite active
Cc1ccc(N=Nc2c(O)c(S(=O)(=O)O)cc3ccc(S(=O)(=O)O)cc23)c(C)c1 | active; multisex active; multispecies active
Brc1cc(Br)c2cccnc2c1 | inactive; multisex inactive
FC(F)OC(Cl)C(F)(F)F (configuration not stated) | inactive; multisex inactive
CCCCN(N)C=O | active; multisite active; multisex active
c1ccc(Nc2ccc(Nc3ccccc3)cc2)cc1 | inactive; multisex inactive; multispecies inactive
CN(C)C=O | inactive; multisex inactive; multispecies inactive

Structure (SMILES) | outcome
CC(C)(Oc1ccc(C2CC2(Cl)Cl)cc1)C(=O)O (configuration not stated) | active; multisite active; multisex active; multispecies active
CC(=O)C(N=Nc1ccc(Cl)cc1Cl)C(=O)Nc1ccc(-c2ccc(NC(=O)C(N=Nc3ccc(Cl)cc3Cl)C(C)=O)c(C)c2)cc1C (configuration not stated) | inactive; multispecies inactive
Nc1c(Br)cc(Br)c2c1C(=O)c1ccccc1C2=O | active; multisite active; multisex active; multispecies active
ClCc1cccnc1 | active; multisex active; multispecies active
CCCCC1(COC(=O)CCC(=O)O)C(=O)N(c2ccccc2)N(c2ccccc2)C1=O | inactive; multisex inactive
N[C@@H](CC(=O)O)C(=O)O | inactive; multisex inactive
C=C(Cl)Cl | active; multisite active; multisex active
Nc1ccc([N+](=O)[O-])cc1N | inactive; multisex inactive; multispecies inactive
O=C1C2CC=CCC2C(=O)N1SC(Cl)(Cl)Cl (configuration not stated) | active; multisite active; multisex active; multispecies active
Nc1ccccc1N | active; multisex active; multispecies active
CN(Cc1cnc2nc(N)nc(N)c2n1)c1ccc(C(=O)N[C@@H](CCC(=O)O)C(=O)O)cc1 | inactive; multisex inactive; multispecies inactive
O.O.O.O.O.O.O.O=S(=O)([O-])[O-].[Co+2] | active; multisite active; multisex active; multispecies active
CCN(CC)C(=O)/C(Cl)=C(\C)OP(=O)(OC)OC | inactive; multisex inactive
Cc1cc(Cl)ccc1OCC(=O)O | inactive; multisex inactive; multispecies inactive
CC(N)Cc1ccccc1 (configuration not stated) | inactive; multisex inactive; multispecies inactive
c1ccc2sc(SNC3CCCCC3)nc2c1 | inactive; multisex inactive
O=Cc1ccco1 | active; multisex active; multispecies active
O=C1c2ccccc2C(=O)c2c(O)cccc21 | active; multisite active
Cc1ccc(S(=O)(=O)OCCN(C)N=O)cc1 | active; multisite active; multisex active
Cc1cc(N)ccc1N | inactive; multisex inactive; multispecies inactive
NC(=O)CCCCn1ccc(NC(N)=NCC(F)(F)F)n1 | active; multisex active; multispecies active
CC(Oc1cc(Cl)c(Cl)cc1Cl)C(=O)O (configuration not stated) | inactive; multisex inactive
Cl | inactive; multisex inactive
O=C(O)Cc1c[nH]c2ccccc12 | inactive; multisex inactive
O=NN1CCCCCCCCCCCC1 | active; multisex active
C=CCl | active; multisite active; multisex active; multispecies active

Structure (SMILES) | outcome
COc1ccc(OC)c(/C=C/c2ccc(N)cc2)c1 | active; multisite active; multispecies active
O=C(NCC1CCCCN1)c1cc(OCC(F)(F)F)ccc1OCC(F)(F)F (configuration not stated) | inactive; multisex inactive; multispecies inactive
O=C1CN=C(c2ccccc2)c2cc(Cl)ccc2N1CC1CC1 | inactive; multisex inactive; multispecies inactive
COc1ccc(N)cc1 | inactive; multisex inactive; multispecies inactive
Nc1ccc(NC(=O)c2ccc(N)cc2)cc1 | inactive; multisex inactive
CCCCCCCCCC[N+](C)(C)[O-] | inactive; multisex inactive
CC(O)CN(CC(C)O)N=O (configuration not stated) | active; multisite active; multisex active
O=C1c2ccccc2C(=O)c2ccccc21 | inactive; multisex inactive
CC(C)(C)c1cc([N+](=O)[O-])cc([N+](=O)[O-])c1OS(C)(=O)=O | inactive; multisex inactive
CN(N=O)C(N)=O | active; multisite active; multispecies active
Nc1ccc(N=Nc2ccc(-c3ccc(N=Nc4c(S(=O)(=O)O)cc5cc(S(=O)(=O)O)c(N=Nc6ccccc6)c(O)c5c4N)cc3)cc2)c(N)c1 | active; multisite active; multisex active; multispecies active
c1ccc2occc2c1 | active; multisite active; multisex active; multispecies active
CCCCN(CCCC)C(=S)[S-].CCCCN(CCCC)C(=S)[S-].[Zn+2] | inactive; multisex inactive
c1ccoc1 | active; multisite active; multisex active; multispecies active
CC(=O)Oc1c(C)c(C)c2c(c1C)CCC(C)(CCCC(C)CCCC(C)CCCC(C)C)O2 (configuration not stated) | inactive; multisex inactive
C=CC#N | active; multisite active; multisex active
FC(F)Cl | inactive; multisex inactive; multispecies inactive
N=c1ccn2c(n1)O[C@H]1[C@H](O)[C@@H](CO)O[C@H]12 | inactive; multisex inactive
Oc1ccc(O)cc1 | active; multisite active; multisex active; multispecies active
C/C=C/c1ccc(OC)cc1 | inactive; multisex inactive
CCC1(c2ccccc2)C(=O)N=C(O)NC1=O (configuration not stated) | active; multisex active; multispecies active
CC(=O)N(C(C)=O)c1cccc2c1Cc1ccccc1-2 | active; multisite active
CCOC(=O)C(O)(c1ccc(Cl)cc1)c1ccc(Cl)cc1 | active; multisex active
CCC1CO1 (configuration not stated) | active; multisite active
